How the values were obtained:
[1] = test system: patients with taste dysfunction; experiment: Subjective taste acuity and flavor perception (0-100 scale); format: in vivo, human; conditions: for FLAVOR PERCEPTION: DEGREE OF IMPROVEMENT / TASTE ACUITY: DEGREE OF IMPROVEMENT: Mean ± SEM
Procedure: Subjective statements of acuity loss were quantitated by use of a scale from 0-100 with 100 reflecting total loss of taste function, 0 reflecting no loss and a number between 0-100 reflecting appropriate degree of loss. Mean±SEM of loss degree was measured among all patients and each pathology initiating taste dysfunction.
Subjective statements of taste acuity loss and loss of flavor perception were quantitated by use of a scale from 0-100 with 100 reflecting total loss of taste acuity or flavor perception, 0 reflecting no loss and a number between 0-100 reflecting appropriate degree of loss. […] Mean±SEM of loss degree was measured among all patients and each pathology initiating taste dysfunction.
[…] Saliva Shh and measurements of taste function by use of subjective responses of acuity and flavor perception and in olfactometry was measured at intervals of 2-6 months in these patients.

hyposmic patients = experiment: Subjective responses in smell, flavor and taste function (1-100 scale) after oral theophylline; format: in vivo, human
Text: The term “subjective improvement” as used herein and its grammatical equivalents can refer to measurements of improvement in perception for all external odors based upon a scale of 1-100 with 100 indicating complete recovery of normal smell function with responses from 1-100 scaled appropriately. […] Subjective improvement in taste function can also be measured with changes in taste for salt, sweet, sour and bitter tastants measured on the same 1-100 scale with 100 indicating return to normal for each of the four tastants considered and responses <100 scaled consistently less.
Thirty-one of the hyposmic patients were treated with oral theophylline with a dose range of 200-800 mg taken over a period of 2-10 months. These patients were 18 men, aged 12-78 y, 62+5 y, with six with PIHH, 10 with allergic rhinitis, one with congenital smell loss and one post anesthesia and 13 women, aged 12-67 y, 42±6 y, with four with PIHH, one with allergic rhinitis and eight with congenital smell loss. Improvement in smell function consisted of improvement in both subjective responses to oral theophylline and in olfactometry. Subjective improvement in smell function consisted of measurements of improvement in perception for all external odors based upon a scale of 1-100 with 100 indicating complete recovery of normal smell function with responses from 1-100 scaled appropriately. […] Subjective improvement in taste function was also measured with changes in taste for salt, sweet, sour and bitter tastants measured on the same 1-100 scale with 100 indicating return to normal for each of the four tastants considered and responses <100 scaled consistently less. Improvement by olfactometry was indicated by decreased DT or RT (increased sensitivity), increased ME (increased sensitivity) and changes in H consistent with decreased distortions.

[2] = MEN, patient number 38, after oral theophylline
[3] = WOMEN, patient number 41, after oral theophylline
[4] = all patients, patient number 79, after oral theophylline
[5] = 31 patients, oral theophylline, listed as ORAL THEOPHYLLINE
[6] = 31 patients, oral theophylline, listed as oral theophylline
[7] = oral theophylline, scale 1-100, listed as ORAL THEOPHYLLINE
[8] = oral theophylline, scale 1-100, listed as oral theophylline

Cn1c(=O)c2[nH]cnc2n(C)c1=O [theophylline]
FLAVOR PERCEPTION: I[…] [1, 2]: 22
FLAVOR PERCEPTION: I[…], figure in parentheses [1, 2]: 58
TASTE ACUITY: I[…] [1, 2]: 21
TASTE ACUITY: I[…], figure in parentheses [1, 2]: 55
FLAVOR PERCEPTION: DEGREE OF IMPROVEMENT [1, 2]: 18 ± 4%
TASTE ACUITY: DEGREE OF IMPROVEMENT [1, 2]: 20 ± 5%
FLAVOR PERCEPTION: I[…] [1, 3]: 23
FLAVOR PERCEPTION: I[…], figure in parentheses [1, 3]: 54
TASTE ACUITY: I[…] [1, 3]: 24
TASTE ACUITY: I[…], figure in parentheses [1, 3]: 59
FLAVOR PERCEPTION: DEGREE OF IMPROVEMENT [1, 3]: 36 ± 6%
TASTE ACUITY: DEGREE OF IMPROVEMENT [1, 3]: 35 ± 6%
patients with improvement in both subjective taste acuity and flavor perception ([1]; after oral treatment 200-1000 mg for 2-10 months): about 60%
FLAVOR PERCEPTION: I[…] [1, 4]: 45
FLAVOR PERCEPTION: I[…], figure in parentheses [1, 4]: 63
TASTE ACUITY: I[…] [1, 4]: 45
TASTE ACUITY: I[…], figure in parentheses [1, 4]: 63
FLAVOR PERCEPTION: DEGREE OF IMPROVEMENT [1, 4]: 24 ± 4%
TASTE ACUITY: DEGREE OF IMPROVEMENT [1, 4]: 28 ± 4^+ %
FLAVOR FUNCTION IMPROVED, number of patients (hyposmic patients; 31 patients, oral theophylline): 19
FLAVOR FUNCTION NOT IMPROVED, % of patients studied (hyposmic patients; 31 patients, oral theophylline): [39] %
FLAVOR FUNCTION NOT IMPROVED, number of patients (hyposmic patients; 31 patients, oral theophylline): 12
SMELL FUNCTION NOT IMPROVED, % of patients studied (hyposmic patients; 31 patients, oral theophylline): [39] %
SMELL FUNCTION NOT IMPROVED, number of patients (hyposmic patients; 31 patients, oral theophylline): 12
TASTE FUNCTION IMPROVED, number of patients (hyposmic patients; 31 patients, oral theophylline): 20
TASTE FUNCTION NOT IMPROVED, % of patients studied (hyposmic patients; 31 patients, oral theophylline): [36] %
TASTE FUNCTION NOT IMPROVED, number of patients (hyposmic patients; 31 patients, oral theophylline): 11
SMELL FUNCTION IMPROVED, number of patients (hyposmic patients; 31 patients, oral theophylline 200-800 mg for 2-10 months): 19
SMELL FUNCTION IMPROVED, % of patients studied (hyposmic patients; 31 patients, oral theophylline 200-800 mg for 2-10 months, listed as ORAL THEOPHYLLINE): [61] %
SMELL FUNCTION IMPROVED, % of patients studied (hyposmic patients; 31 patients, oral theophylline 200-800 mg for 2-10 months, listed as oral theophylline): 61%
FLAVOR FUNCTION IMPROVED, % of patients studied (hyposmic patients; [5]): [61] %
TASTE FUNCTION IMPROVED, % of patients studied (hyposmic patients; [5]): [64]^d %
FLAVOR FUNCTION IMPROVED, % of patients studied (hyposmic patients; [6]): 61%
TASTE FUNCTION IMPROVED, % of patients studied (hyposmic patients; [6]): 64%
SMELL FUNCTION IMPROVED, RESPONSE RANGE (hyposmic patients; improved patients (19), scale 1-100): 2-100%
SMELL FUNCTION IMPROVED, RESPONSE Mean ± SEM (hyposmic patients; improved patients (19), scale 1-100, listed as ORAL THEOPHYLLINE): 34 ± 6%
SMELL FUNCTION IMPROVED, RESPONSE Mean ± SEM (hyposmic patients; improved patients (19), scale 1-100, listed as oral theophylline): 34±6%
FLAVOR FUNCTION NOT IMPROVED, RESPONSE Mean ± SEM (hyposmic patients; oral theophylline): 0
FLAVOR FUNCTION NOT IMPROVED, RESPONSE RANGE (hyposmic patients; oral theophylline): 0%
SMELL FUNCTION IMPROVED MEN, number of patients (hyposmic patients; oral theophylline): 11
SMELL FUNCTION NOT IMPROVED, RESPONSE Mean ± SEM (hyposmic patients; oral theophylline): 0
SMELL FUNCTION NOT IMPROVED, RESPONSE RANGE (hyposmic patients; oral theophylline): 0%
TASTE FUNCTION NOT IMPROVED, RESPONSE Mean ± SEM (hyposmic patients; oral theophylline): 0
TASTE FUNCTION NOT IMPROVED, RESPONSE RANGE (hyposmic patients; oral theophylline): 0%
FLAVOR FUNCTION IMPROVED, RESPONSE Mean ± SEM (hyposmic patients; oral theophylline, scale 1-100): 43 ± 8
FLAVOR FUNCTION IMPROVED, RESPONSE RANGE (hyposmic patients; oral theophylline, scale 1-100): 1-100%
SMELL FUNCTION IMPROVED MEN, RESPONSE RANGE (hyposmic patients; oral theophylline, scale 1-100): 3-95%
SMELL FUNCTION IMPROVED WOMEN, RESPONSE RANGE (hyposmic patients; oral theophylline, scale 1-100): 2-100%
TASTE FUNCTION IMPROVED, RESPONSE Mean ± SEM (hyposmic patients; oral theophylline, scale 1-100): 47 ± 8
TASTE FUNCTION IMPROVED, RESPONSE RANGE (hyposmic patients; oral theophylline, scale 1-100): 3-100%
SMELL FUNCTION IMPROVED MEN, RESPONSE Mean ± SEM (hyposmic patients; [7]): 27 ± 9%
SMELL FUNCTION IMPROVED WOMEN, RESPONSE Mean ± SEM (hyposmic patients; [7]): 43 ± 17%
SMELL FUNCTION IMPROVED MEN, RESPONSE Mean ± SEM (hyposmic patients; [8]): 27±9%
SMELL FUNCTION IMPROVED WOMEN, RESPONSE Mean ± SEM (hyposmic patients; [8]): 43±17%
SMELL FUNCTION IMPROVED WOMEN, number of patients (hyposmic patients; oral theophylline, listed as ORAL THEOPHYLLINE): 8
SMELL FUNCTION IMPROVED WOMEN, number of patients (hyposmic patients; oral theophylline, listed as oral theophylline): eight
